“Also recorded” adds a separate entry of the source.
How the values were obtained:
Aβ peptide = Aβ peptide (Homo sapiens, UniProt P05067); assay: Western blot of aggregated Aβ peptide / Aβ monomer; assay type: biochemical; settings: 100 nM, 10 nM, 1 nM THC; FIGS. 4A, 4B
Protocol: FIG. 4A is a western blot showing aggregated Aβ peptide with and without THC treatment.
FIG. 4B is a graph showing the relative quantity of Aβ monomer in the anti-aggregation study described in FIG. 4A. Cells were untreated for the aggregation control or treated with and 100 nM THC, 10 nM THC, and 1 nM THC.
In untreated samples, Aβ peptide increased in intensity for the first 20 minutes, followed by a plateauing of fluorescence at around 30 minutes, at which time the intensity remained constant for the duration of the study. […] Therefore, THC's direct interaction with the Aβ peptide will not dampen an immune response to clear the Aβ peptide. Further analysis with western blot was performed measuring the anti-aggregation properties of THC with Aβ peptide.

Tau = assay: Western blot of Tau in N2a/AβPPswe cells; assay type: cell-based
Protocol: (§1) FIG. 6C is a western blot assay showing Tau and phosphorylated Tau (pTau) levels in N2a/AβPPswe treated with 25 nM THC, 2.5 nM THC, or 0.25 nM THC. Anti-Tau, anti-pTau and β-actin antibodies were used to detect Tau and pTau, and β-actin that served as the protein loading control.
(§2) FIG. 11C is a western blot assay showing Tau and phosphorylated Tau levels in N2a/AβPPswe treated as follows: untreated (CTRL, control), or 10^−5 M Melatonin with 2.5 nM THC, 10^−6 M Melatonin with 2.5 nM THC. Anti-Tau and anti-pTau antibodies were used to […] that served as the protein loading control.
(§3) Amyloid processing and ancillary amyloid protein effects were next tested. After stripping the Western, and restaining for AβPP, using anti-Tau (Chuanhai Cao, Tampa, Fla.), anti-pTau (Chuanhai Cao, Tampa, Fla.), and anti-β-actin antibodies (Cat #A54441, Sigma Aldrich, Merck KGaA; Darmstadt, Germany)) were used to detect Tau levels against a protein loading control (β-actin). After data was collected the membrane was stripped using a western blot striping buffer (Cat #21059, Thermo Fisher Scientific, Waltham, Mass.) and stained for AβPP using 6E10 antibody (Cat #803002, BioLegend, Inc., San Diego, Calif.). Anti-mouse secondary horseradish peroxidase (Cat #A9044, Sigma Aldrich, Merck KGaA; Darmstadt, Germany) secondary antibodies were used.

[1] = in vivo; cited from earlier work
GSK-3β = assay: Western blot of GSK-3β in N2a/AβPPswe cells; assay type: cell-based
Protocol: Next, the effects of THC on amyloid protein processing were analyzed by testing total GSK-30 and phosphorylated GSK-3β (pGSK-3β) levels. β-actin, a housekeeping gene, was used as a control to indicate that GSK-3β was expressed at a constant rate and that the changes in intensity were not related to the change in expression amount.
The cellular effects of THC were next analyzed. As Aβ processing is mediated by GSK-3β, protein levels were tested. N2a/AβPPswe cells were treated with 2.5 nM or 0.25 nM of THC, as provided in Example 1, and N2a/AβPPswe cell lysate were collected, quantified, and aliquoted.
N2a/AβPPswe cells were cultured as provided above and Δ9-THC added at 0.25 nM and 2.5 nM, as provided in Example 1. After THC treatment for 48 hours, N2a/AβPPswe cell lysate were collected, quantified, and aliquoted. Using 12% Tris-Glycine gel system (Bio-Rad Laboratories, Inc., Hercules, Calif.), protein were separated by electrophoresis and semi-dry transferred to a polyvinylidene difluoride (PVDF) membrane. GSK-3β (Cat #9315, Cell Signaling Technology, Inc. Danvers, Mass.) and β-actin (Cat #A54441, Sigma Aldrich, Merck KGaA; Darmstadt, Germany) antibodies were used as primary antibody. After adding secondary antibody (Goat-anti-Rabbit-HRP Cat #4050-05, Southern Biotech, part of Thermo Fisher Scientific, Waltham, Mass.; Anti-mouse IgG-HRP Cat #A9044, Sigma Aldrich, Merck KGaA; Darmstadt, Germany), the membranes were exposed using ECL substrate (Pierce). After membrane was developed, film with bands were scanned, followed by analysis of gel-quantification software (QuantityOne, from Bio-rad).
The effects of combining THC with other compounds was analyzed using a combination of THC and melatonin. Cells were treated with 2.5 nM of THC and 10 μM or 1 μM melatonin, using the methods discussed above, and N2a/AβPPswe cell lysate collected, quantified, and aliquoted. […] After membrane was developed, film with bands were scanned, followed by analysis of gel-quantification software (QuantityOne, from Biorad).

[2] = tested on: isolated mitochondria from N2a/AβPPswe cells; assay: Respiratory function of isolated mitochondria (Clark type oxygen electrode); assay type: cell-based
Protocol: FIG. 14A is a graph showing basal mitochondrial function after treatment with THC and a combination of THC and melatonin. N2a/AβPPswe cells were cultured in 10 cm tissue culture plate and then treated with drugs for 36 hours and mitochondria were harvested and tested for their ability of using oxygen utilization. Samples were loaded as follows; Ctrl, Control, or 10^−5 M Melatonin with 2.5 nM THC, 10^−6 M Melatonin with 2.5 nM THC, 2.5 nM THC, 10^−5 M Melatonin, or 10^−6 M Melatonin+2.5 nM THC.
FIG. 14B is a graph showing mitochondrial function in the presence of FCCP after treatment with THC alone as well as with a combination of THC and melatonin. N2a/AβPPswe cells were cultured in 10 cm tissue culture plate and then treated with drugs for 36 hours and mitochondria were harvested and tested for their ability of using oxygen utilization. Samples were loaded as follows; Ctrl, Control, or 10^−5 M Melatonin with 2.5 nM THC, 10^−6 M Melatonin with 2.5 nM THC, 2.5 nM THC, 10^−5 M Melatonin, or 10^−6 M Melatonin+2.5 nM THC.

[3] = tested on: phosphorylated Tau (pTau); assay: Western blot of phosphorylated Tau in N2a/AβPPswe cells; assay type: cell-based
Protocol: as §1, §2, §3

Aβ peptide, sequence (P05067 672-711 limits assumed): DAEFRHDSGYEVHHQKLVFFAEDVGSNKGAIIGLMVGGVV

SMILES: CCCCCc1cc(O)c2c(c1)OC(C)(C)[C@@H]1CCC(C)=C[C@@H]21 [THC, Δ9-tetrahydrocannabinol]
- Relative quantity of Aβ monomer (Aβ peptide): increases monomeric Aβ; also recorded: higher relative % of Aβ monomer
- Tau level among THC concentrations (Tau; 2.5 nM THC, FIGS. 6C, 7): lowest level of Tau
- Tau protein levels (standardized to β-actin), THC alone (Tau; 25 nM, 2.5 nM, 0.25 nM THC, FIG. 7): lowers the production of Tau; also recorded: reduces Tau protein levels
- Bioavailability [1]: 30%
- GSK-3β protein levels (ratio to β-actin) (GSK-3β; THC 0.25 nM and 2.5 nM, 48 hours, FIGS. 5A, 5B): dose-dependent decrease; also recorded: decreases the GSK-3β protein levels
- GSK-3 levels relative to the control (GSK-3β; lowest level of THC from the tests): about half
- Decrease of GSK-3β protein levels over the untreated control (GSK-3β; ultra-low doses of THC, FIGS. 5A, 5B): ≤ 50%
- Respiration / oxygen utilization of isolated mitochondria ([2]; 2.5 nM THC alone or with 10 μM or 1 μM melatonin, early and late stages of respiration): higher oxygen utilization
- Basal mitochondrial function (oxygen utilization) ([2]; 36 hours treatment, FIG. 14A): enhance mitochondrial function
- Mitochondrial function in the presence of FCCP ([2]; 36 hours treatment, FIG. 14B): enhance mitochondrial function
- Ratio of pTau:Tau among THC concentrations ([3]; 2.5 nM THC, FIG. 8): peak of pTau:Tau ratio
- Phosphorylated Tau levels, THC alone ([3]; 25 nM, 2.5 nM, 0.25 nM THC, FIGS. 6C, 6D): reduction by THC in a dose-dependent manner; also recorded: lowers the phosphorylation of tau in a dose dependent manner; also recorded: decreases phosphorylated Tau
- Ratio of phosphorylated Tau to Tau, THC alone ([3]; 25 nM, 2.5 nM, 0.25 nM THC, FIGS. 8, 13): increase the ratio of pTau:Tau; also recorded: increase in phosphorylated Tau; also recorded: increases phosphorylated Tau

Source: patent US11446276B2, “Extreme low dose THC as a therapeutic and prophylactic agent for Alzheimer's disease” (University of South Florida, priority 2015, dated 2022)
